# Source: PubChem BioAssay AID1918941 (Molecular Pharmacology Branch, DTP, NCI, 2023)
# Values joined by “and” are separate entries in the source; they are usually repeats but may differ in a detail not shown here. Equal entries are not always repeated.
# System: SW 1271 complex spheroids, viability
# Assay: Anticancer human tumor SW 1271 cell line growth inhibition [LSD1];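 note: spheroids exposed to agents for 7 days before luminescence read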;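 for viability, T/C: 100% = DMSO vehicle control viability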
# Conditions: for viability, T/C: stronger effect = lower value
# How it was run: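 Multicellular complex spheroids of tumor cells with human endothelial cells (HUVEC) and mesenchymal stem cells; the LSD1 inhibitor iadademstat was combined with standard-of-care or investigational agents. Top concentration at or near clinical Cmax, half-log dilutions; final DMSO ≤0.25%.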
# [1] = curve of first compound, second compound 0.1 µM
# [2] = curve of first compound, second compound 0.316 µM
# [3] = curve of first compound, second compound 1 µM
# [4] = curve of first compound, second compound 3.16 µM
# [5] = curve of first compound, second compound 10 µM
# [6] = second compound 0.1 µM, first compound 0.00316 µM
# [7] = second compound 0.1 µM, first compound 0.01 µM
# [8] = second compound 0.1 µM, first compound 0.0316 µM
# [9] = second compound 0.1 µM, first compound 0.1 µM
# [10] = second compound 0.1 µM, first compound 0.316 µM
# [11] = second compound 0.1 µM, first compound 1 µM
# [12] = second compound 0.316 µM, first compound 0.00316 µM
# [13] = second compound 0.316 µM, first compound 0.01 µM
# [14] = second compound 0.316 µM, first compound 0.0316 µM
# [15] = second compound 0.316 µM, first compound 0.1 µM
# [16] = second compound 0.316 µM, first compound 0.316 µM
# [17] = second compound 0.316 µM, first compound 1 µM
# [18] = second compound 1 µM, first compound 0.00316 µM
# [19] = second compound 1 µM, first compound 0.01 µM
# [20] = second compound 1 µM, first compound 0.0316 µM
# [21] = second compound 1 µM, first compound 0.1 µM
# [22] = second compound 1 µM, first compound 0.316 µM
# [23] = second compound 1 µM, first compound 1 µM
# [24] = second compound 3.16 µM, first compound 0.00316 µM
# [25] = second compound 3.16 µM, first compound 0.01 µM
# [26] = second compound 3.16 µM, first compound 0.0316 µM
# [27] = second compound 3.16 µM, first compound 0.1 µM
# [28] = second compound 3.16 µM, first compound 0.316 µM
# [29] = second compound 3.16 µM, first compound 1 µM
# [30] = second compound 10 µM, first compound 0.00316 µM
# [31] = second compound 10 µM, first compound 0.01 µM
# [32] = second compound 10 µM, first compound 0.0316 µM
# [33] = second compound 10 µM, first compound 0.1 µM
# [34] = second compound 10 µM, first compound 0.316 µM
# [35] = second compound 10 µM, first compound 1 µM
# [36] = second compound 0.1 µM, first compound 0.000949 µM
# [37] = second compound 0.1 µM, first compound 0.003 µM
# [38] = second compound 0.1 µM, first compound 0.00949 µM
# [39] = second compound 0.1 µM, first compound 0.03 µM
# [40] = second compound 0.1 µM, first compound 0.0949 µM
# [41] = second compound 0.1 µM, first compound 0.3 µM
# [42] = second compound 0.316 µM, first compound 0.000949 µM
# [43] = second compound 0.316 µM, first compound 0.003 µM
# [44] = second compound 0.316 µM, first compound 0.00949 µM
# [45] = second compound 0.316 µM, first compound 0.03 µM
# [46] = second compound 0.316 µM, first compound 0.0949 µM
# [47] = second compound 0.316 µM, first compound 0.3 µM
# [48] = second compound 1 µM, first compound 0.000949 µM
# [49] = second compound 1 µM, first compound 0.003 µM
# [50] = second compound 1 µM, first compound 0.00949 µM
# [51] = second compound 1 µM, first compound 0.03 µM
# [52] = second compound 1 µM, first compound 0.0949 µM
# [53] = second compound 1 µM, first compound 0.3 µM
# [54] = second compound 3.16 µM, first compound 0.000949 µM
# [55] = second compound 3.16 µM, first compound 0.003 µM
# [56] = second compound 3.16 µM, first compound 0.00949 µM
# [57] = second compound 3.16 µM, first compound 0.03 µM
# [58] = second compound 3.16 µM, first compound 0.0949 µM
# [59] = second compound 3.16 µM, first compound 0.3 µM
# [60] = second compound 10 µM, first compound 0.000949 µM
# [61] = second compound 10 µM, first compound 0.003 µM
# [62] = second compound 10 µM, first compound 0.00949 µM
# [63] = second compound 10 µM, first compound 0.03 µM
# [64] = second compound 10 µM, first compound 0.0949 µM
# [65] = second compound 10 µM, first compound 0.3 µM
structure (smiles),measurement,setting,value
COc1cc(Nc2ncc3c(n2)-c2ccc(Cl)cc2C(c2c(F)cccc2OC)=NC3)ccc1C(=O)O + NC1CCC(NC2CC2c2ccccc2)CC1,IC50,[1],200 nM
same,IC50,[2],148 nM
same,IC50,[3],184 nM
same,IC50,[4],175 nM
same,IC50,[5],186 nM
same,"viability, T/C",[6],84.2%
same,"viability, T/C",[7],78.2%
same,"viability, T/C",[8],80.3%
same,"viability, T/C",[9],59.5%
same,"viability, T/C",[10],42.9%
same,"viability, T/C",[11],16%
same,"viability, T/C",[12],81.2%
same,"viability, T/C",[13],80.3%
same,"viability, T/C",[14],75.9%
same,"viability, T/C",[15],55.4%
same,"viability, T/C",[16],36%
same,"viability, T/C",[17],13.5%
same,"viability, T/C",[18],83.5%
same,"viability, T/C",[19],81.9%
same,"viability, T/C",[20],85.4%
same,"viability, T/C",[21],58.3%
same,"viability, T/C",[22],40.4%
same,"viability, T/C",[23],13.7%
same,"viability, T/C",[24],97.3%
same,"viability, T/C",[25],80.4%
same,"viability, T/C",[26],84.8%
same,"viability, T/C",[27],62.1%
same,"viability, T/C",[28],36.3%
same,"viability, T/C",[29],15.1%
same,"viability, T/C",[30],81.3%
same,"viability, T/C",[31],80.5%
same,"viability, T/C",[32],79.7%
same,"viability, T/C",[33],59.2%
same,"viability, T/C",[34],40.7%
same,"viability, T/C",[35],14.1%
COc1cc(Nc2ncc3c(n2)-c2ccc(Cl)cc2C(c2c(F)cccc2OC)=NC3)ccc1C(=O)O + NC1CC1c1ccc(-c2cccc(O)c2)cc1,IC50,[1],79.7 nM
same,IC50,[2],69 nM
same,IC50,[3],114 nM
same,IC50,[4],79 nM
same,IC50,[5],64.5 nM
same,"viability, T/C",[6],75.8%
same,"viability, T/C",[7],69.2%
same,"viability, T/C",[8],67.3%
same,"viability, T/C",[9],43.5%
same,"viability, T/C",[10],29%
same,"viability, T/C",[11],13.3%
same,"viability, T/C",[12],62.6%
same,"viability, T/C",[13],69.7%
same,"viability, T/C",[14],58.2%
same,"viability, T/C",[15],43%
same,"viability, T/C",[16],31.4%
same,"viability, T/C",[17],13.1%
same,"viability, T/C",[18],68.4%
same,"viability, T/C",[19],67.3%
same,"viability, T/C",[20],73.6%
same,"viability, T/C",[21],48.1%
same,"viability, T/C",[22],31%
same,"viability, T/C",[23],11.6%
same,"viability, T/C",[24],60.1%
same,"viability, T/C",[25],55.7%
same,"viability, T/C",[26],67.7%
same,"viability, T/C",[27],43.4%
same,"viability, T/C",[28],28.6%
same,"viability, T/C",[29],13.7%
same,"viability, T/C",[30],65.6%
same,"viability, T/C",[31],59.1%
same,"viability, T/C",[32],61.2%
same,"viability, T/C",[33],43%
same,"viability, T/C",[34],29.6%
same,"viability, T/C",[35],17.2%
COc1cc(Nc2ncc3c(n2)-c2ccc(Cl)cc2C(c2c(F)cccc2OC)=NC3)ccc1C(=O)O,"viability, T/C",compound 0.00316 µM,92.2% and 73.8%
same,"viability, T/C",compound 0.01 µM,86.8% and 78.9%
same,"viability, T/C",compound 0.0316 µM,72.8% and 73.9%
same,"viability, T/C",compound 0.1 µM,58.6% and 59%
same,"viability, T/C",compound 0.316 µM,42.5% and 36.9%
same,"viability, T/C",compound 1 µM,14.1% and 15.6%
same,IC50,curve of compound,179 nM and 164 nM
Nc1ccn(C2OC(CO)C(O)C2(F)F)c(=O)n1 (configuration not stated) + NC1CC1c1ccc(-c2cccc(O)c2)cc1,IC50,[1],> 300 nM
same,IC50,[2],> 300 nM
same,IC50,[3],> 300 nM
same,IC50,[4],> 300 nM
same,IC50,[5],> 300 nM
same,"viability, T/C",[36],76.7%
same,"viability, T/C",[37],68.7%
same,"viability, T/C",[38],63.3%
same,"viability, T/C",[39],54%
same,"viability, T/C",[40],64.9%
same,"viability, T/C",[41],58%
same,"viability, T/C",[42],65.9%
same,"viability, T/C",[43],54.7%
same,"viability, T/C",[44],55.7%
same,"viability, T/C",[45],57.4%
same,"viability, T/C",[46],54.3%
same,"viability, T/C",[47],64.2%
same,"viability, T/C",[48],62.1%
same,"viability, T/C",[49],64.2%
same,"viability, T/C",[50],57.5%
same,"viability, T/C",[51],55.5%
same,"viability, T/C",[52],58.5%
same,"viability, T/C",[53],61.3%
same,"viability, T/C",[54],65.3%
same,"viability, T/C",[55],58.3%
same,"viability, T/C",[56],51.4%
same,"viability, T/C",[57],52%
same,"viability, T/C",[58],56.2%
same,"viability, T/C",[59],47.3%
same,"viability, T/C",[60],62.1%
same,"viability, T/C",[61],57.7%
same,"viability, T/C",[62],51.1%
same,"viability, T/C",[63],60.1%
same,"viability, T/C",[64],48.5%
same,"viability, T/C",[65],51.2%
Nc1ccn(C2OC(CO)C(O)C2(F)F)c(=O)n1 (configuration not stated) + NC1CCC(NC2CC2c2ccccc2)CC1,IC50,[1],> 300 nM
same,IC50,[2],> 300 nM
same,IC50,[3],> 300 nM
same,IC50,[4],> 300 nM
same,IC50,[5],> 300 nM
same,"viability, T/C",[36],83.3%
same,"viability, T/C",[37],69.4%
same,"viability, T/C",[38],62.5%
same,"viability, T/C",[39],59.5%
same,"viability, T/C",[40],69.3%
same,"viability, T/C",[41],71.4%
same,"viability, T/C",[42],73.8%
same,"viability, T/C",[43],71.2%
same,"viability, T/C",[44],76.2%
same,"viability, T/C",[45],61.3%
same,"viability, T/C",[46],62.7%
same,"viability, T/C",[47],59.6%
same,"viability, T/C",[48],80.7%
same,"viability, T/C",[49],64.6%
same,"viability, T/C",[50],59.8%
same,"viability, T/C",[51],66.3%
same,"viability, T/C",[52],56.1%
same,"viability, T/C",[53],59.4%
same,"viability, T/C",[54],67.5%
same,"viability, T/C",[55],68.4%
same,"viability, T/C",[56],84.5%
same,"viability, T/C",[57],59.8%
same,"viability, T/C",[58],60.5%
same,"viability, T/C",[59],63%
same,"viability, T/C",[60],83.7%
same,"viability, T/C",[61],64.3%
same,"viability, T/C",[62],62.5%
same,"viability, T/C",[63],68.6%
same,"viability, T/C",[64],60.7%
same,"viability, T/C",[65],64.9%
